Laboratory results from BindingDB's records for doi:10.1021/acsmedchemlett.6b00315 (Ghent University, 2017).

How the values were obtained:
[1] = Inhibition of methicillin-resistant Staphylococcus aureus Mu50 TRAP assessed as potentiation of vancomycin-induced antibiofilm activity cotreated with vancomycin for 24 hrs
[2] = Inhibition of methicillin-resistant Staphylococcus aureus Mu50 TRAP assessed as potentiation of vancomycin-induced antibiofilm activity treated for 4 hrs prior to vancomycin addition measured after 20 hrs
[3] = Inhibition of methicillin-resistant Staphylococcus aureus Mu50 TRAP assessed as potentiation of vancomycin-induced antibiofilm activity cotreated with vancomycin for 24 hrs; remark: listed apart in the source

| Compound | EC50 [1] | EC50 [2] | EC50 [3] |
| --- | --- | --- | --- |
| O=C(NC[C@H]1OC[C@@](O)(CN2Cc3ccccc3C2=O)[C@@H]1O)c1ccccc1Cl | 20.9 µM | 13.7 µM |  |
| O=C(NC[C@]1(O)CO[C@H](CNC(=O)c2ccccc2Cl)[C@H]1O)c1ccccc1F |  | 48.6 µM | 62.2 µM |
| O=C(NC[C@]1(O)CO[C@H](CNC(=O)c2ccncc2Cl)[C@H]1O)c1ccccc1 |  | > 250 µM | 232 µM |
| O=C(NC[C@H]1OC[C@@](O)(CN2C(=O)c3ccccc3C2=O)[C@@H]1O)c1ccccc1Cl | 39 µM | 2.63 µM |  |
| Cn1nccc1C(=O)NC[C@H]1OC[C@@](O)(CNC(=O)c2ccccc2)[C@@H]1O | 23.5 µM | 29.3 µM |  |
| O=C(NC[C@]1(O)CO[C@H](CNC(=O)c2cnccc2Cl)[C@H]1O)c1ccccc1 |  | 200 µM | > 250 µM |
| O=C(NC[C@]1(O)CO[C@H](CNC(=O)c2cccnc2Cl)[C@H]1O)c1ccccc1 |  | > 250 µM | > 250 µM |
| O=C(NC[C@H]1OC[C@@](O)(CN2C(=O)c3ccccc3C2=O)[C@@H]1O)c1ccc(-c2ccccc2)cc1 | 12.1 µM | 24.7 µM |  |
| Cc1ccc(C(=O)NC[C@]2(O)CO[C@H](CNC(=O)c3ccccc3Cl)[C@H]2O)cc1 | 41.9 µM | 79.7 µM |  |
| O=C(NC[C@H]1OC[C@@](O)(CNC(=O)C2CCCCC2)[C@@H]1O)c1ccccc1Cl | 34 µM | 9.56 µM |  |
| Cn1cncc1C(=O)NC[C@H]1OC[C@@](O)(CNC(=O)c2ccccc2)[C@@H]1O | 58.2 µM | 46.7 µM |  |
| O=C(NC[C@]1(O)CO[C@H](CNC(=O)c2ccccc2Cl)[C@H]1O)c1ccoc1 | 76.7 µM | 68.5 µM |  |
| O=C(NC[C@]1(O)CO[C@H](CN2C(=O)c3ccccc3C2=O)[C@H]1O)c1ccccc1Cl |  | 0.26 µM | 1.27 µM |
| CC(=O)NC[C@]1(O)CO[C@H](CNC(=O)c2ccccc2Cl)[C@H]1O | 3.55 µM | 15.4 µM |  |
| O=C(OC[C@H]1OC(O)[C@@](O)(COC(=O)c2cc(O)c(O)c(O)c2)[C@@H]1O)c1cc(O)c(O)c(O)c1 (some centres undefined) [Hamamelitannin] | 165 µM | 146 µM |  |
| O=C(NC[C@H]1OC[C@@](O)(CNC(=O)c2ccc(-c3ccccc3)cc2)[C@@H]1O)c1ccnnc1 |  | 8.54 µM | 45.4 µM |
| O=C(NC[C@H]1OC[C@@](O)(CNC(=O)c2ccccc2Cl)[C@@H]1O)c1ccccc1 |  | 5.58 µM | 15 µM |
| O=C(NC[C@]1(O)CO[C@H](CN2C(=O)c3ccccc3C2=O)[C@H]1O)c1ccnnc1 |  | 5.85 µM | 11.4 µM |
| [N-]=[N+]=NC[C@]1(O)CO[C@H](CNC(=O)c2ccccc2Cl)[C@H]1O | 2.34 µM | 15.1 µM |  |
| O=C(NC[C@H]1OC[C@@](O)(CNCc2ccccc2)[C@@H]1O)c1ccccc1Cl | 8.42 µM | 6.32 µM |  |
| O=C(NC[C@]1(O)CO[C@H](CNC(=O)c2ccccc2Cl)[C@H]1O)c1ccccc1 |  | 0.39 µM | 7.98 µM |
| O=C(NC[C@H]1OC[C@H](O)[C@@H]1O)c1ccccc1Cl |  | 11.4 µM | 4.99 µM |
